# Test results reported in US5063205A, “Uptake of iron by the body” (National Research Development Corporation, priority 1987, dated 1991).
# Tests used:
# [1] = test system: intestinal fragments from the mice; assay: In vitro 59Fe3+ uptake by intestinal fragments from EGF-fed mice; design: species or system mouse; conditions: intestinal fragments of mice given about 1 n.mole/day EGF in drinking water; 0-450 μM Fe3+ nitrilotriacetate chelate; n in parentheses
# Experimental: (§1) (A) Six week old, male To mice received doses averaging 1 n.mole/day of mouse epidermal growth factor in their drinking water during a period of up to 7 days, a control group of similar mice receiving plain drinking water. Iron absorption was then studied in the mice by both in vitro and in vivo techniques. The former, using techniques as described by Raja et al, Cell Biochem. and Funct., 1987, 5, 69-76, involved incubation of intestinal fragments from the mice with a 0-450 μM solution of a Fe^3+ chelate (the 2:1 nitrilotriacetate:iron(III) complex) whilst the latter, using techniques as described by Simpson and Peters, Biochim. Biophys. Acta., 1986, 856, 115-122), involved instillation of 50-100 μl of a 250 μM solution of the Fe^3+ chelate into a tied-off loop of intestine of an anaesthetised mouse.
# [2] = test system: tied-off loop of intestine of an anaesthetised mouse; assay: In vivo 59Fe3+ uptake from tied-off loop of intestine of anaesthetised mouse
# Experimental: as §1
# mice = assay: Whole body retention of intragastric 59Fe3+ by gamma counting; assay type: in vivo, mouse; conditions: EGF in drinking water for 3 days, 12 hours fast, intragastric 1 μCurie 59Fe3+ as 50 μl of 100 μM chelate; whole body count
# Experimental: (B) The procedure described under (A) was repeated but with the treated mice receiving the EGF for 3 rather than 7 days. After fasting for 12 hours both the EGF-treated and the control mice were treated intragastrically with 1 μCurie of ^59 Fe^3+ administered as 50 μl of a 100 μM aqueous solution of the radiolabelled 2:1 nitrilotriacetic acid:iron(III) complex. The mice were subjected to a whole body count by gamma counting at 3 hours and 7 days later.
# duodenum = assay: Duodenum wet weight and cell turnover (L-ornithine decarboxylase activity) after oral EGF; assay type: in vivo, mouse; conditions: oral EGF about 1 n.mole/day, up to 7 days
# [3] = given intravenously; cited from earlier work
# [4] = mean ± SE, oral EGF about 1 n.mole/day in drinking water, 250 μM Fe3+ chelate in tied-off loop, p < 0.01 vs controls
substance,measurement,setting,value
epidermal growth factor [EGF],Vmax for 59Fe3+ uptake,[1],9.4 ± 1.1 pmol/mg/min
same,Time course of total mucosal uptake of 59Fe3+ in vivo,[2]; EGF in drinking water for up to 7 days,maximal after 3 days
same,Total mucosal flux,"[2]; mean ± SE, oral EGF about 1 n.mole/day in drinking water, 250 μM Fe3+ chelate in tied-off loop, p < 0.001 vs controls",92.4 ± 8.4 pmol 59Fe3+ /mg tissue/10 minu
same,Carcass transfer,[2]; [4],35.3 ± 2.6 pmol 59Fe3+ /mg tissue/10 minu
same,Mucosal retention,[2]; [4],57.1 ± 6.3 pmol 59Fe3+ /mg tissue/10 minu
same,Percentage of the 59Fe3+ present at 3 hours which was retained after 7 days,mice,21.0±3.2
same,Cell turnover rates as reflected by L-ornithine decarboxylase activity in the duodenum,duodenum,elevated
same,Half life in vivo,[3],about 21/2
